Laboratory results: patent publication US10213451B2, “Methods and compounds for modulating the secretion or expression of adhesion proteins or angiopoietins of cells” (PACIFIC ARROW LIMITED, priority 2004, dated 2019)

Columns and labels:
Format in all cases: cell-based, human
[1] = test system: laminin expression in ES2 cells; experiment: Microarray gene expression, Table 3; settings: for LAMC1, gene expression ratio to no drug control (D): probe 200770_s_at
Description: (§1) Y/D is the ratio (in folds) of gene expression in cells treated with compound Y as compared with those of the no drug control (D),
(§2) YM/D is the ratio of gene expression in cells treated with compound YM (ACH-Y, Y without sugar moiety) compared with those of the no drug control (D)
(§3) Cell culture and drug-treatment.: ES2 cells were seeded in a T-25 flask with 4.5 million cells per flask for 24 hours. Cell culture was replaced with fresh medium with xanifolia-Y (Y) or DMSO no drug control (D) for 24 hours. Cells were then harvested for RNA isolation. Three experiments were done.
(§4) RNA extraction, labeling, hybridization, and data analysis. RNA was extracted from tumor cells using the Qiagen RNeasy Kit. RNA quality and quantity was checked by the Agilent BioAnalyzer and the NanoDrop® ND-1000 spectrophotometer respectively before further manipulation. The first and second cDNA strands were synthesized from 20 ng of total RNA using the Affymetrix T7 oligo(dT) primer protocol and kit for the two-cycle amplification. To produce amplified biotin-labeled-cRNA, the cDNA was […] by in vitro transcription using the MegaScript kit from Ambion. 15.0 μg of the labeled cRNA was fragmented and re-checked for concentration using the NanoDrop® ND-1000 spectrophotometer. A hybridization cocktail containing Affymetrix spike-in controls and fragmented labeled cRNA was loaded onto the Human U133 Plus 2.0 GeneChip® oligonucleotide array. The Affymetrix array (Affymetrix, Inc. Santa Clara, Calif.) is comprised of over 1,300,000 unique oligonucleotide features that represent greater than 38,500 well-substantiated human genes. The array was hybridized for 16 hours at 45° C. with rotation at 60 rpm then washed and stained with a strepavidin, R-phycoerythrin conjugate stain on the Affymetrix Fluidicis Station 450. Signal amplification was done using biotinylated antistreptavidin. The arrays were scanned using the GeneChip® 3000 confocal laser scanner with autoloader. The images were analyzed and quality control metrics recorded using Affymetrix GCOS software version 1.4. Lastly, the expression value for each gene was calculated using dChip PM-only model based or Plier algorithm.
(§5) Pairwise comparisons were made as follows: Treated vs. Control (Y vs. D), Modified Drug vs Control (YM/ACY-H vs. D) and Treated vs. Modified Drug (Y vs. YM/ACH-Y) Cel files analyzed using the Bioconductor package of R Statistical programming. Limma analysis generated a reasonable number of changing genes between the samples.
(§6) The raw data in the .CEL files were normalized by the GCRMA method (robust multi-array analysis). It is implemented in Bioconductor (http://www.bioconductor.org/). The raw signal intensity data were normalized, background corrected and summarized based on certain statistical models, and an expression value, in log 2-scale, is obtained per chip per probe set. Then the null hypothesis was tested that there's no significant changes in gene expression between the treatment pairs. This was done by LIMMA and is also implemented in Bioconductor. It uses empirical Bayes method to estimate the variance in gene expression. One comparison was made, namely, High Grade vs. Low Grade. The raw p-values were adjusted by the Benjamnin-Hochberg method for false discovery rate (FDR) control. All data sets contained a significant number of genes with a p-value less than 0.05, which is that the probability that a gene is NOT differential expressed (false positive) is 1:20.

[2] = test system: CAM expression in ES2 cells; experiment: Microarray gene expression, Table 4
Description: as §1, §2, §3, §4, §5, §6

[3] = test system: myosin expression in ES2 cells; experiment: Microarray gene expression, Table 7
Description: as §1, §2, §3, §4, §5, §6

[4] = test system: CD54 expression in ES2 cells; experiment: Microarray gene expression, Table 11; settings: probe 202638_s_at
Description: as §1, §2, §3
RNA extraction, labeling, hybridization, and data analysis. RNA was extracted from tumor cells using the Qiagen RNeasy Kit. RNA quality and quantity was checked by the Agilent BioAnalyzer and the NanoDrop® ND-1000 spectrophotometer respectively before further manipulation. […] The images were analyzed and quality control metrics recorded using Affymetrix GCOS software version 1.4. Lastly, the expression value for each gene was calculated using dChip PM-only model based or Plier algorithm.
Pairwise comparisons were made as follows: Treated vs. Control (Y vs. D), Modified Drug vs Control (YM/ACY-H vs. D) and Treated vs. Modified Drug (Y vs. YM/ACH-Y) Cel files analyzed using the Bioconductor package of R Statistical programming. […]

[5] = test system: Glypican expression in ES2 cells; experiment: Microarray gene expression, Table 13
Description: as §1, §2, §3, §4, §5
The raw data in the .CEL files were normalized by the GCRMA method (robust multi-array analysis). It is implemented in Bioconductor (http://www.bioconductor.org/). […]

[6] = test system: insulin-like growth factor binding protein expression in ES2 cells; experiment: Microarray gene expression, Table 16
Description: as §1, §2, §3, §4, §5, §6

[7] = test system: RAB3B, member RAS oncogene family protein expression in ES2 cells; experiment: Microarray gene expression, Table 17
Description: as §1, §2, §3, §4, §5, §6

[8] = test system: Fibronectin secretion from lung carcinoma cells (H460); experiment: Fibronectin secretion (Western blot), H460 cells; settings: Homo sapiens, NCI-H460, H460 cells, 20 ug/ml
[9] = test system: Fibronectin secretion from liver HepG2 cells; experiment: Fibronectin secretion (Western blot), HepG2 cells; settings: Homo sapiens, HepG2, HepG2 cells, 30 ug/ml
[10] = test system: Fibronectin secretion from brain glioblastoma T98G cells; experiment: Fibronectin secretion (Western blot), T98G cells; settings: Homo sapiens, T98G, 20 ug/ml

C/C=C(/C)C(=O)O[C@H]1[C@H](OC(=O)/C(C)=C\C)[C@@]2(CO)C(CC1(C)C)C1=CCC3[C@@]4(C)CC[C@H](O)C(C)(C)C4CC[C@@]3(C)[C@]1(C)[C@@H](O)[C@H]2O (some centres unmarked) [ACH-Y]
LAMC1, gene expression ratio to no drug control (D) ([1]; listed as YM): −1.1 folds | LAMC1, gene expression ratio to no drug control (D) ([1]; listed as YM/ACH-Y): 1.1 folds | LAMB1 laminin, beta 1, gene expression ratio to no drug control (D) ([1]; probe 201505_at): −2.0 folds | LAMA4 laminin, alpha 4, gene expression ratio to no drug control (D) ([1]; probe 202202_s_at): −2.0 folds | LAMB1, gene expression ratio to no drug control (D) ([1]; probe 211651_s_at): −1.7 folds | LAMB2, gene expression ratio to no drug control (D) ([1]; probe 216264_s_at): −2.0 folds | ALCAM activated leukocyte cell adhesion molecule, gene expression ratio to no drug control (D) ([2]; probe 201951_at): −1.7 folds | ALCAM activated leukocyte cell adhesion molecule, gene expression ratio to no drug control (D) ([2]; probe 201952_at): −1.4 folds | SCAMP1 secretory carrier membrane protein 1, gene expression ratio to no drug control (D) ([2]; probe 206667_s_at): −1.5 folds | SCAMP1 secretory carrier membrane protein 1, gene expression ratio to no drug control (D) ([2]; probe 212416_at): −1.1 folds | SCAMP1 secretory carrier membrane protein 1, gene expression ratio to no drug control (D) ([2]; probe 212417_at): −1.4 folds | SCAMP1 secretory carrier membrane protein 1, gene expression ratio to no drug control (D) ([2]; probe 212425_at): −1.5 folds | TICAM2 toll-like receptor adaptor molecule 2, gene expression ratio to no drug control (D) ([2]; probe 228234_at): −1.3 folds | TICAM2 toll-like receptor adaptor molecule 2, gene expression ratio to no drug control (D) ([2]; probe 239431_at): −1.3 folds | ALCAM activated leukocyte cell adhesion molecule, gene expression ratio to no drug control (D) ([2]; probe 240655_at): −1.3 folds | inhibiting ratio to the control, genes related to the adhesion molecule ([2]; span over different probes of Table 4): −1.1 to −1.7 folds | MYLK myosin, light polypeptide kinase, gene expression ratio to no drug control (D) ([3]; probe 202555_s_at): −1.2 folds | MYO6 myosin VI, gene expression ratio to no drug control (D) ([3]; probe 203215_s_at): −1.6 folds | MYO5A myosin VA, gene expression ratio to no drug control (D) ([3]; probe 204527_at): −1.2 folds | MYH9 myosin, heavy polypeptide 9, non-muscle, gene expression ratio to no drug control (D) ([3]; probe 211926_s_at): −1.2 folds | MYO1D myosin ID, gene expression ratio to no drug control (D) ([3]; probe 212338_at): −2.1 folds | MYH10 myosin, heavy polypeptide 10, non-muscle, gene expression ratio to no drug control (D) ([3]; probe 212372_at): −1.4 folds | MYLK myosin, light polypeptide kinase, gene expression ratio to no drug control (D) ([3]; probe 224823_at): −1.4 folds | MYO1C Myosin IC, gene expression ratio to no drug control (D) ([3]; probe 225080_at): −1.4 folds | expression ratio to the control, myosin family ([3]; span over probes of Table 7): −1.2 to −2.1 folds | ICAM1 intercellular adhesion molecule 1 (CD54), gene expression ratio to no drug control (D) [4]: 2.3 folds | GPC6 Glypican 6, gene expression ratio to no drug control (D) ([5]; probe 227059_at): −1.8 folds | GPC6 Glypican 6, gene expression ratio to no drug control (D) ([5]; probe 243865_x_at): −2.0 folds | IGFBP7 insulin-like growth factor binding protein 7, gene expression ratio to no drug control (D) ([6]; probe 201163_s_at): −2.7 folds | IGFBP4 insulin-like growth factor binding protein 4, gene expression ratio to no drug control (D) ([6]; probe 201508_at): −2.4 folds | IGFBP6 insulin-like growth factor binding protein 6, gene expression ratio to no drug control (D) ([6]; probe 203851_at): −1.8 folds | IGFBP1 insulin-like growth factor binding protein 1, gene expression ratio to no drug control (D) ([6]; probe 205302_at): −1.8 folds | IGFBP3 insulin-like growth factor binding protein 3, gene expression ratio to no drug control (D) ([6]; probe 210095_s_at): −3.5 folds | IGFBP3 insulin-like growth factor binding protein 3, gene expression ratio to no drug control (D) ([6]; probe 212143_s_at): −5.3 folds | RAB3B, member RAS oncogene family, gene expression ratio to no drug control (D) ([7]; probe 205924_at): −1.8 folds | RAB3B, member RAS oncogene family, gene expression ratio to no drug control (D) ([7]; probe 205925_s_at): −1.2 folds | RAB3B, member RAS oncogene family, gene expression ratio to no drug control (D) ([7]; probe 227123_at): −1.2 folds | RAB3B, member RAS oncogene family, gene expression ratio to no drug control (D) ([7]; probe 242629_at): −1.8 folds | inhibition at 20 µg/mL [8]: 28% | inhibition at 30 µg/mL [9]: 21% | inhibition at 20 µg/mL [10]: 30%
